Reference: patent publication US7601739B2, “Compounds having antiestrogenic and tissue selective estrogenic properties, and compounds with anti-androgenic properties for treatment of prostate cancer and androgen receptor dependent diseases” (Virgina Commonwealth University, priority 2006, dated 2009)
Entries after “also recorded” stand apart in the source; their conditions may differ.

Experiments:
MDA-MB-231 cells = assay: hER negative breast cancer cell proliferation assay; format: cell-based, human; conditions: hER negative cell line
Experimental: MCF-7 or MDA-MB-231 cells were inoculated into 12-well culture plates at 10000 cells in 2 ml maintained medium per well. Cells were allowed to attach to the bottom for 24 hrs incubation, then the seeding medium was removed and replaced by the experimental medium (phenol red-free DMEM supplemented with 5% charcoal-stripped fetal bovine serum and Penicillin (100 unit/ml)/Streptomycin ([…])). After 24 hr incubation, the test molecules dissolved in DMSO were added in the wells. […] The culture was continued for 3 days and the medium and tested compounds were replaced every two days. The final cell numbers were estimated with CellTiter proliferation assay kit (Promega, Madison, Wis.) by measuring the absorbance at 570 nm, which is directly proportional to the number of living cells in the culture.
In this assay, MDA-MB-231 breast cancer cell line, a hER negative cell line, was used. DMSO was used as reference.

hERα [1] = target: T1, hERα (Homo sapiens, UniProt P03372); assay: Transient transfection reporter assay for hERα in MCF-7 cells; format: cell-based; design: Relative Estrogenic Activity: dose or concentration left out as unconfirmed; conditions: for Relative Estrogenic Activity: MCF-7 cells transfected with hERα, DMSO set as 1; for estrogenic effect: MCF-7 cells, hERα, compared with DMSO and tamoxifen; for Relative Antiestrogenic Activity at 2.5 μM: with 1 nM estradiol, 1 nM E2 used as reference (1); for antiestrogenic / inhibition activity: against 1 nM estrogen
T1 construct: mammalian expression plasmid containing full length human ER cDNA, pCMV-hER; expressed in transfected cells; host or cells: MCF-7 human breast cancer cells
T1 sequence (P03372 1-595): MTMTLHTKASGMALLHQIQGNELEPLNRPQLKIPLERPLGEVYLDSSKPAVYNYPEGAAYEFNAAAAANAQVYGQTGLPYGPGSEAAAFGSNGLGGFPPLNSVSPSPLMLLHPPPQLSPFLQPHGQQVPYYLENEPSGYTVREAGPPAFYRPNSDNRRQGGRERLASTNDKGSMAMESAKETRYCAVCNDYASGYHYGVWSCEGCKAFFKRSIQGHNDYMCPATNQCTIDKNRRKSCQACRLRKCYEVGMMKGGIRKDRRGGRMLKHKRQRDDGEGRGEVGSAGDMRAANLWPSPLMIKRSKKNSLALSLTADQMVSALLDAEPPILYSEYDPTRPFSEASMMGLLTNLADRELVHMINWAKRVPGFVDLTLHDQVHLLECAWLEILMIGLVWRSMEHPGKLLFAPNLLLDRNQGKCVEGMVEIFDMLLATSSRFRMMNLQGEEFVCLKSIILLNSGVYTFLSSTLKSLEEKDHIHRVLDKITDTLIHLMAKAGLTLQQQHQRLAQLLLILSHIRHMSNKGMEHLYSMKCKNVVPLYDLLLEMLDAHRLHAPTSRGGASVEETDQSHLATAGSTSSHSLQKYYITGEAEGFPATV
Experimental: For the transient transfection reporter assays, the cells were plated in triplicate in 12-well plates at a density of 300000 cells/well in the phenol red-free DMEM (GIBCO/BRL, Grand Island, N.Y.) supplemented with 10% charcoal-stripped fetal bovine serum (Hyclone, Logan, Utah), Penicillin (100 unit/ml)/Streptomycin ([…]), 2 mML-glutamine and 1 mM sodium Pyruvate. 24 hrs later, the cells were transfected with three plasmids by using Superfect transfection kit (Qiagen, Valencia, Calif.). For the detection of hER activity, cells were transfected with 2 g hER expression plasmid (pCMV-ER ), 6 g luciferase reporter plasmid containing estrogen receptor response element (PGL-TATA-Luc), and 600 ng normalization control, β-galactosidase reporter plasmid (pCMV ). For the detection of hER activity, cells were transfected with 3 ug hER expression plasmid (pcDNA3.1-hER), 6 g luciferase reporter plasmid containing estrogen receptor response element (PGL-TATA-Luc), and 600 ng pCMV. For determining the influence of ER's major coactivator in breast, AIB 1, 2 g pcDNA3.1-AIB1 was added into the transfection plasmid solution mentioned previously.
The transfected cells were rinsed with PBS and treated with various concentrations of test molecules and one […] (vehicle, DMSO or methanol) in phenol red-free culture medium. After incubation for further 24 hrs, the cells were washed with PBS and lysed with lysis buffer (Pierce, Rockford, Ill.). The lysate was used to determine the luciferase activity for ER's activity and the β-galactosidase activity for the normalization of transfection efficiency.
For the luciferase activity assay, 20 μl of lysate and 100 μl luciferase assay buffer (Promega, Madison, Wis.) were added into a well of 96-well plate. The luminescence was detected by using luminescence microplate reader, LumiCount (Packard, Boston, Mass.). For the β-galactosidase activity assay, […] β-galactosidase assay buffer (Clontech, Palo Alto, Calif.) were added into a well of 96-well plate. The β-galactosidase activity was measured as luminescence strength by using luminescence microplate reader, LumiCount (Packard, Boston, Mass.). The normalized reporter activity was calculated by the luciferase activity divided by that of β-galactosidase.
The transient transfection reporter assay was used to determine the estrogenic or antiestrogenic activity of tested compounds in employed human breast cancer cells, MCF-7 cells that are cotransfected with hERα expression and reporter plasmids. […] […] The estrogenic (antiestrogenic) activity was determined by dividing the luciferase activity by the β-galactosidase activity. To determine the influence of estrogen receptor's major coactivator in breast cancer, AIB1, for the compounds' estrogenic activity, the expression vector of AIB1 was additionally cotransfected with the plasmids mentioned above.

hERα [2] = target: T2, hERα (Homo sapiens, UniProt P03372); assay: Yeast two-hybrid and filter lift assay of hERα dimerization; format: cell-based
T2 construct: the full length hERα was inserted into pGAD-GAL4 and pGBD-GAL4 vectors; expressed in transfected cells; host or cells: S. cerevisiae Y190 transformed with pGBT-hER (pGBKT7) and pGAD-hER (pGADT7)
T2 sequence (P03372 1-595) 1: T1 sequence (P03372 1-595)
T2 sequence (P03372 1-595) 2: T1 sequence (P03372 1-595)
Experimental: The transformed yeasts with yeast two-hybrid vectors were cultured in synthetic medium lacking trytophan, and leucine. […] After that, the membranes were soaked in 0.4 ml Z-buffer/Xgal (60 mM Na2HPO4, 40 mM NaH2PO410 mM KCl, 1 mM MgSO4, 0.1% SDS, 50 mM -mercaptoethanol, 20 mM Xgal). The pictures of the results were taken within 2 and 3 hours after the -galactosidase assay was processed.
Dimerization of estrogen receptor plays an essential role in regulating estrogen receptor's functions including DNA binding, transactivation, and coactivator recruitment. In this study, yeast two hybrid and filter lift assays were used to determine the ability of compounds 2 and 6 to interrupt the dimerization of hERα. For setting up yeast two hybrid assay, the full length hERα was inserted into pGAD-GAL4 and pGBD-GAL4 vectors. In pGBD-GAL4, hERα was fused to the GAL4 DNA binding domain through its N terminus. In pGAD-GA14, hERα was fused to the GAL4 activation domain through its N terminus. When the dimerization of hERα occurs mainly through its C terminus, the GAL4 DNA binding domain binds to the repeated GAL4 response element located in front of the β-gal reporter gene and the whole complex, GAL4-BD/hERα/hERα/GAL4-AD, turns on the synthesis of the product of β-gal reporter gene. […] Filter lift assay in which X-gal was used, was employed to qualitatively determine the activity of β-galactosidase.

Row | Relative Estrogenic Activity (hERα [1]) | estrogenic effect (hERα [1]) | Relative Antiestrogenic Activity at 2.5 μM (hERα [1]) | blue color change of yeast colony in combination with estrogen (hERα [2]; estrogen's colony as reference, more blue = less inhibition) | antiestrogenic / inhibition activity (hERα [1]) | SMILES | proliferation effects against MDA-MB-231 cells (FIG. 6, words) (MDA-MB-231 cells) | inhibitory activity against hERα dimerization in combination with estrogen (hERα [2]; combined with estrogen) | induction of hERα dimerization, compound alone (hERα [2]; tested alone)
1 | 0.78 | do not exert any estrogenic effects | 0.79 |  |  | CCCCNC(=O)CCCCCCCCCCOCC1Cc2ccccc2CN1C(=O)c1cccc(OC)c1 (stereo not shown) [Compound 4] | do not inhibit or stimulate the growth |  | 
2 | 1.03 | do not exert any estrogenic effects | 0.44 | slight blue color change | strongest inhibition activity | CCCCNC(=O)CCCCCCCCCCOCC1Cc2ccccc2CN1C(=O)c1cccc(O)c1 (stereo not shown) [Compound 6] | do not inhibit or stimulate the growth | inhibitory activity is higher than tamoxifen's; also recorded: obvious inhibitory activity | did not induce hERα dimerization; also recorded: do not promote the dimerization of hERα
3 | 2.05 | highest estrogenic effect | 0.76 |  | moderate antiestrogenic activity | CCCCNC(=O)CCCCCCCCCCOCC1Cc2ccccc2CN1C(=O)c1ccc(O)cc1 (stereo not shown) [Compound 7] |  |  | 
